Assays:
VCaP cells = experiment: VCaP growth inhibition assay; format: cell-based; conditions: 30 pM R1881, 9 days, CTG
How it was run: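 Growth read by CTG luminescence after 9-day exposure to compound (final 100 nM–10 fM, 1:5 steps) plus 30 pM R1881, in phenol red-free DMEM with 5% CSS. Cells pre-incubated 72 h before dosing; IC50 by nonlinear 4-parameter regression.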

AR / CBP ternary complex = experiment: Ternary complex formation assay (sandwich ELISA, AR capture / CBP detection) in VCaP cell lysates; format: cell-based; conditions: 1.5 hours treatment, sandwich ELISA (AR capture, CBP or p300 detection)
How it was run: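 Anti-AR (AR 441)-coated plates capture AR from lysates of VCaP cells grown ≥3 days at 50K/well in 5% charcoal-stripped FBS, dosed with bifunctional for 1.5 h and lysed 30 min at 4 °C. Co-captured CBP/p300 is probed with rabbit mAb and HRP anti-rabbit, then QuantaRed fluorescence (570/585) is read at 0, 5 and 15 min.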

Structure (SMILES)	IC50 (VCaP cells) [nM]	EC50 (AR / CBP ternary complex) [nM]
C[C@@H]1CC(=O)Nc2cccc(-c3ccc4c(c3)c(-c3cnn(C)c3)nn4CCCN(C)c3ncc(C(=O)NC4C(C)(C)C(Oc5ccc(C#N)c(Cl)c5)C4(C)C)cn3)c2N1 (stereo partly drawn) [Compound 50, N-[3-(3-chloro-4-cyano-phenoxy)-2,2,4,4-tetramethyl-cyclobutyl]-2-[methyl-[3-[5-[(4R)-4-methyl-2-oxo-1,3,4,5-tetrahydro-1,5-benzodiazepin-6-yl]-3-(1-methylpyrazol-4-yl)indazol-1-yl]propyl]amino]pyrimidine-5-carboxamide]	0.1 to 1	< 1
Cn1cc(-c2cc3cccc(-c4cc(C5=CCN(CC6CCN(c7ncc(C(=O)NC8C(C)(C)C(Oc9ccc(C#N)c(Cl)c9)C8(C)C)cn7)CC6)CC5)c5c(c4)n(C)c(=O)n5C)c3cn2)cn1 (stereo not drawn) [Compound 243, N-[3-(3-chloro-4-cyano-phenoxy)-2,2,4,4-tetramethyl-cyclobutyl]-2-[4-[[4-[1,3-dimethyl-6-[3-(1-methylpyrazol-4-yl)-8-isoquinolyl]-2-oxo-benzimidazol-4-yl]-3,6-dihydro-2H-pyridin-1-yl]methyl]-1-piperidyl]pyrimidine-5-carboxamide]	0.1 to 1	> 100
CC(=O)N1CCc2c(c(-c3cccc4cc(-c5cnn(CCC6CC7(C6)CN(c6ncc(C(=O)NC8C(C)(C)C(Oc9ccc(C#N)c(Cl)c9)C8(C)C)cn6)C7)c5)ncc34)nn2C2CCOCC2)C1 (stereo not drawn) [Compound 225, 2-[6-[2-[4-[8-(5-acetyl-1-tetrahydropyran-4-yl-6,7-dihydro-4H-pyrazolo[4,3-c]pyridin-3-yl)-3-isoquinolyl]pyrazol-1-yl]ethyl]-2-azaspiro[3.3]heptan-2-yl]-N-[3-(3-chloro-4-cyano-phenoxy)-2,2,4,4-tetramethyl-cyclobutyl]pyrimidine-5-carboxamide]	0.1 to 1	< 1
CC(=O)N1CCc2c(c(-c3cccc4cc(-c5ccc(CCC6CCN(c7ncc(C(=O)NC8C(C)(C)C(Oc9ccc(C#N)c(Cl)c9)C8(C)C)cn7)CC6)nc5)ncc34)nn2C)C1 (stereo not drawn) [Compound 231, 2-[4-[2-[5-[8-(5-acetyl-1-methyl-6,7-dihydro-4H-pyrazolo[4,3-c]pyridin-3-yl)-3-isoquinolyl]-2-pyridyl]ethyl]-1-piperidyl]-N-[3-(3-chloro-4-cyano-phenoxy)-2,2,4,4-tetramethyl-cyclobutyl]pyrimidine-5-carboxamide]	0.1 to 1	10 to 100
COc1cc(OC2C(C)(C)C(NC(=O)c3ccc(N4CCC(C5CN(c6ccc(-c7cc8cccc(-c9nn(C%10CCOCC%10)c%10c9CN(C(C)=O)CC%10)c8cn7)cn6)C5)CC4)cc3)C2(C)C)ccc1C#N (stereo not drawn) [Compound 268, 4-[4-[1-[5-[8-(5-acetyl-1-tetrahydropyran-4-yl-6,7-dihydro-4H-pyrazolo[4,3-c]pyridin-3-yl)-3-isoquinolyl]-2-pyridyl]azetidin-3-yl]-1-piperidyl]-N-[3-(4-cyano-3-methoxy-phenoxy)-2,2,4,4-tetramethyl-cyclobutyl]benzamide]	0.1 to 1	< 1
CC(=O)N1CCc2c(c(N3CCCc4cc(-c5cnn(C)c5)ccc43)nn2C2CCN(CC3CCN(c4ncc(C(=O)NC5C(C)(C)C(Oc6ccc(C#N)c(Cl)c6)C5(C)C)cn4)CC3)CC2)C1 (stereo not drawn) [Compound 24, 2-[4-[[4-[5-acetyl-3-[6-(1-methylpyrazol-4-yl)-3,4-dihydro-2H-quinolin-1-yl]-6,7-dihydro-4H-pyrazolo[4,3-c]pyridin-1-yl]-1-piperidyl]methyl]-1-piperidyl]-N-[3-(3-chloro-4-cyano-phenoxy)-2,2,4,4-tetramethyl-cyclobutyl]pyrimidine-5-carboxamide]	0.1 to 1	< 1
CC(=O)N1CCc2c(c(N3CCCc4cc(-c5cnn(C)c5)c(C(F)F)cc43)nn2CC2CCN(c3ncc(C(=O)NC4C(C)(C)C(Oc5ccc(C#N)c(Cl)c5)C4(C)C)cn3)CC2)C1 (stereo not drawn) [Compound 53, 2-[4-[[5-acetyl-3-[7-(difluoromethyl)-6-(1-methylpyrazol-4-yl)-3,4-dihydro-2H-quinolin-1-yl]-6,7-dihydro-4H-pyrazolo[4,3-c]pyridin-1-yl]methyl]-1-piperidyl]-N-[3-(3-chloro-4-cyano-phenoxy)-2,2,4,4-tetramethyl-cyclobutyl]pyrimidine-5-carboxamide]	> 100	< 1
CC(=O)N1CCc2c(c(N3CCCc4cc(-c5cnn(C)c5)c(C(F)F)cc43)nn2C2CN(CC3CCN(c4ncc(C(=O)NC5C(C)(C)C(Oc6ccc(C#N)c(Cl)c6)C5(C)C)cn4)CC3)C2)C1 (stereo not drawn) [Compound 10, 2-[4-[[3-[5-acetyl-3-[7-(difluoromethyl)-6-(1-methylpyrazol-4-yl)-3,4-dihydro-2H-quinolin-1-yl]-6,7-dihydro-4H-pyrazolo[4,3-c]pyridin-1-yl]azetidin-1-yl]methyl]-1-piperidyl]-N-[3-(3-chloro-4-cyano-phenoxy)-2,2,4,4-tetramethyl-cyclobutyl]pyrimidine-5-carboxamide]	1 to 100	> 100

The remaining lines, values ahead:

IC50 (VCaP cells) [nM]	EC50 (AR / CBP ternary complex) [nM]	Structure (SMILES)
0.1 to 1	< 1	CC(=O)N1CCc2c(c(N3CCCc4cc(-c5cnn(C)c5)c(C)cc43)nn2C2CCN(C3CCC4(CC3)CN(c3ncc(C(=O)NC5C(C)(C)C(Oc6ccc(C#N)c(Cl)c6C)C5(C)C)cn3)C4)CC2)C1 (stereo not drawn) [Compound 473, 2-[7-[4-[5-acetyl-3-[7-methyl-6-(1-methylpyrazol-4-yl)-3,4-dihydro-2H-quinolin-1-yl]-6,7-dihydro-4H-pyrazolo[4,3-c]pyridin-1-yl]-1-piperidyl]-2-azaspiro[3.5]nonan-2-yl]-N-[3-(3-chloro-4-cyano-2-methyl-phenoxy)-2,2,4,4-tetramethyl-cyclobutyl]pyrimidine-5-carboxamide]
0.1 to 1	< 1	CC(=O)N1CCc2c(c(-c3cccc4cc(-c5ccc(C(=O)NCCC6CCN(c7ncc(C(=O)NC8C(C)(C)C(Oc9ccc(C#N)c(Cl)c9)C8(C)C)cn7)CC6)nc5)ncc34)nn2C2CCOCC2)C1 (stereo not drawn) [Compound 179, 2-[4-[2-[[5-[8-(5-acetyl-1-tetrahydropyran-4-yl-6,7-dihydro-4H-pyrazolo[4,3-c]pyridin-3-yl)-3-isoquinolyl]pyridine-2-carbonyl]amino]ethyl]-1-piperidyl]-N-[3-(3-chloro-4-cyano-phenoxy)-2,2,4,4-tetramethyl-cyclobutyl]pyrimidine-5-carboxamide]
≤ 0.1	< 1	COc1cc(OC2C(C)(C)C(NC(=O)c3cnc(N4CCC(CN5CCC(n6nc(N7CCCc8cc(-c9cnn(C)c9)c(C(F)F)cc87)c7c6CCN(C(C)=O)C7)CC5)C5(CC5)C4)nc3)C2(C)C)ccc1C#N (stereo not drawn) [Compound 362, 2-[8-[[4-[5-acetyl-3-[7-(difluoromethyl)-6-(1-methylpyrazol-4-yl)-3,4-dihydro-2H-quinolin-1-yl]-6,7-dihydro-4H-pyrazolo[4,3-c]pyridin-1-yl]-1-piperidyl]methyl]-5-azaspiro[2.5]octan-5-yl]-N-[3-(4-cyano-3-methoxy-phenoxy)-2,2,4,4-tetramethyl-cyclobutyl]pyrimidine-5-carboxamide]
≤ 0.1	< 1	CC(=O)N1CCc2c(c(N3CCCc4cc(-c5cnn(C)c5)c(C(F)F)cc43)nn2C2CCC(OC3CCN(c4ncc(C(=O)NC5C(C)(C)C(Oc6ccc(C#N)c(Cl)c6)C5(C)C)cn4)CC3)CC2)C1 (stereo not drawn) [Compound 339, 2-[4-[4-[5-acetyl-3-[7-(difluoromethyl)-6-(1-methylpyrazol-4-yl)-3,4-dihydro-2H-quinolin-1-yl]-6,7-dihydro-4H-pyrazolo[4,3-c]pyridin-1-yl]cyclohexoxy]-1-piperidyl]-N-[3-(3-chloro-4-cyano-phenoxy)-2,2,4,4-tetramethyl-cyclobutyl]pyrimidine-5-carboxamide]
≤ 0.1	< 1	COc1cc(OC2C(C)(C)C(NC(=O)c3ccc(N4CCC(n5ncc6c5CCC(n5nc(N7CCCc8cc(-c9cnn(C)c9)c(C(F)F)cc87)c7c5CCN(C(C)=O)C7)C6)CC4)cc3)C2(C)C)ccc1C#N (stereo not drawn) [Compound 265, 4-[4-[5-[5-acetyl-3-[7-(difluoromethyl)-6-(1-methylpyrazol-4-yl)-3,4-dihydro-2H-quinolin-1-yl]-6,7-dihydro-4H-pyrazolo[4,3-c]pyridin-1-yl]-4,5,6,7-tetrahydroindazol-1-yl]-1-piperidyl]-N-[3-(4-cyano-3-methoxy-phenoxy)-2,2,4,4-tetramethyl-cyclobutyl]benzamide]
≤ 0.1	< 1	COc1cc(OC2C(C)(C)C(NC(=O)c3ccc(N4CCC(CN5CCC(n6nc(-c7cccc8cc(-c9cnn(C)c9)ncc78)c7c6CCN(C(C)=O)C7)CC5)CC4)cc3)C2(C)C)ccc1C#N (stereo not drawn) [Compound 253, 4-[4-[[4-[5-acetyl-3-[3-(1-methylpyrazol-4-yl)-8-isoquinolyl]-6,7-dihydro-4H-pyrazolo[4,3-c]pyridin-1-yl]-1-piperidyl]methyl]-1-piperidyl]-N-[3-(4-cyano-3-methoxy-phenoxy)-2,2,4,4-tetramethyl-cyclobutyl]benzamide]
≤ 0.1	< 1	COc1cc(OC2C(C)(C)C(NC(=O)c3ccc(N4CCC(C)(N5CCC(n6nc(N7CCCc8cc(-c9cnn(C)c9)c(C(F)F)cc87)c7c6CCN(C(C)=O)C7)CC5)CC4)cc3)C2(C)C)ccc1C#N (stereo not drawn) [Compound 305, 4-[4-[4-[5-acetyl-3-[7-(difluoromethyl)-6-(1-methylpyrazol-4-yl)-3,4-dihydro-2H-quinolin-1-yl]-6,7-dihydro-4H-pyrazolo[4,3-c]pyridin-1-yl]-1-piperidyl]-4-methyl-1-piperidyl]-N-[3-(4-cyano-3-methoxy-phenoxy)-2,2,4,4-tetramethyl-cyclobutyl]benzamide]

— patent US20250129070A1, “BIFUNCTIONAL ANDROGEN RECEPTOR COMPOUNDS” (priority 2023, published 2025)
